Reference: US10041933B2, “Modulators of the interaction of astrin and raptor, and uses thereof in cancer therapy” (ALBERT-LUDWIGS-UNIVERSITÄT FREIBURG, priority 2013, dated 2018)

Tests used:
[1] = test system: oral squamous carcinoma cell lines; details: cited from earlier work
[2] = test system: p70-S6K1-pT389 (mTORC1 substrate); experiment: Immunoblot of mTORC1 substrate p70-S6K1-pT389 after insulin/aa induction; format: cell-based; details: astrin knockdown, insulin and aa 10 minutes; Rapamycin 100 nM, PP242 250 nM
Method: Experiments were performed in HeLa α Kyoto cells, and BT474, MDA-MB-231, MDA-MB-453, T-47D, MCF-7 breast cancer cell lines. […] Cultivation of breast cancer cell lines T-47D, BT474, MDA-MB-231 and MDA-MB-453 was done in the following media: RPMI (PAA, Pasching, Austria) supplemented with 100 nM insulin. MCF7 cells were cultivated in RPMI (PAA, Pasching, Austria). Insulin/aa induction was done as described (Sonntag et al., 2012). Prior to stress induction with 500 μM Arsenite or 2 mM H2O2, cells were starved for 16 h in DMEM without Glucose and fetal calf serum (PAA, Pasching, Austria) supplemented with 1.5% L-glutamine.
Stress granules were analysed after 30 min. stress induction. Apoptosis was analysed after 1-3 hours stress induction. Inhibitors were obtained from Calbiochem, Merck KGaA, Darmstadt, Germany and Sigma Aldrich, St. Louis, USA; dissolved in DMSO, and applied 30 min. prior to all induction regimens, at the following concentrations: Rapamycin (100 nM), PP242 (250 nM), Wortmannin (200 nM), Cycloheximide (2 μg/mL); HeLa cells were synchronized with Nocodazole (400 ng/mL) and subsequent mitotic shake off at G2/M, and released as described (Thein, K. H., Kleylein-Sohn, J., Nigg, E. A., and Gruneberg, U. (2007). Astrin is required for the maintenance of sister chromatid cohesion and centrosome integrity. J Cell Biol 178, 345-354). […]

Structure (SMILES)	cytotoxicity [1]	p70-S6K1-pT389 in astrin deficient cells [2]
CCCCCCCC/C=C\CCCCCCCCCCCCOP(=O)([O-])OCC[N+](C)(C)C [Erufosine]	dose-dependent cytotoxicity in all cell lines	
CC(C)n1nc(-c2cc3cc(O)ccc3[nH]2)c2c(N)ncnc21 [PP242]		potently inhibited
